Where two headings read alike, the source gives them in different places.
Tests used:
[1] = tested on: differentiated Caco-2 cells; test: AlamarBlue metabolic activity (viability) assay; type: cell-based, human; settings: 1-1000 nM toxin, 6-72 h; highest 1000 nM for 72 h
Protocol: Metabolic activity assay: Cytotoxic effects of OA, DTX1 and DTX2 (1, 10, 20, 40, 100, 200, 500 and 1000 nM) in differentiated Caco-2 cells have been evaluated in a time-dependent manner by the AlamarBlue metabolic activity assay. Incubation with 0.01% Triton X-100 has been used as a positive control of death. Data are shown in Figure 2 as the percent of fluorescence vs. control.
The viability of the Caco-2 cells was measured by Alamar Blue assay, as previously described. Briefly, the Caco-2 cells were seeded onto 96-well plates at an initial concentration of 25,000 cells/mL and cultured until differentiation (21 days) with medium renewal every 2–3 days. Subsequently, cells were treated with increasing concentrations of OA, DTX1, DTX2 and Triton X-100 in the presence of AlamarBlue; then, fluorescence was measured at 6, 8, 10, 12, 24, 48 and 72 hours of incubation using a FL600 Microplate Fluorescence Reader from BioTek (Winooski, VT, USA) at an excitation wavelength of 530 nm and an emission wavelength of 590 nm. Control cells were considered as having 100% viability, and the results are expressed as the percentage of the fluorescence of treated cells versus the fluorescence of control ones.

[2] = tested on: occludin in Caco-2 cells; test: Confocal microscopy imaging of occludin; type: cell-based, human; settings: 24 h; for occludin distribution / location: 100 nM toxin; for occludin distribution, positive controls: 0.005% Triton X-100, 100 mM NaBT, 1 μM STP
Protocol: Tight-junction strands are composed of membrane integral proteins, occludin being the best-studied member. We evaluate the integrity of such tight-junctions in Caco-2 cells treated with 100 nM OA, DTX1 and DTX2 for 24 h by labeling occludin. […] (Figure 5C).
Alexa Fluor® 488-labeled anti-occludin mouse monoclonal antibody from Invitrogen (Camarillo, CA, USA) was used for visualizing occludin, as previously described.
Briefly, differentiated Caco-2 monolayers were treated with OA, DTX1, DTX2, vehicle and positive controls of apoptosis and cellular death: staurosporine (STP), sodium butyrate (NaBT) and Triton-X 100. Immediately after treatments, the cells were fixed and incubated with the anti-occludin antibody. Each experimental condition was performed in duplicate. Confocal imaging was then carried out with a 40× oil immersion objective of a Nikon Eclipse TE2000-E inverted microscope attached to the C1 laser confocal system and EZ-C1 V.2.20 software (Nikon Instruments Europe B.V., Amstelveen, Netherlands). An Argon laser was used to excite the Alexa Fluor 488 conjugated antibody.

[3] = tested on: PP2A; settings: cited from earlier work; for inhibition equivalency factor (IEF): PP2A
[4] = tested on: differentiated Caco-2 monolayers; test: Trans-epithelial electrical resistance (TEER) measurement; type: cell-based, human; settings: for change in TEER values: 10, 50 and 100 nM, 3, 6, 12 and 24 h
Protocol: We assessed tight junction formation stability through measurements of trans-epithelial electrical resistance (TEER). […] We studied the changes that OA, DTX1 and DTX2 induced in the TEER of the Caco-2 monolayer as a function of time. Differentiated Caco-2 monolayers were incubated with 10, 50 and 100 nM OA, DTX1 and DTX2. TEER was measured immediately before the toxins addition and after 3, 6, 12 and 24 h of incubation with them.
Trans epithelial electric resistance (TEER) was measured across differentiated Caco-2 monolayers, as previously described. The measurements were performed before the treatment with OA, DTX1 and DTX2 (controls), and after each of the incubation times established: 3, 6, 12 and 24 h. Only inserts with TEER higher than 300 Ωcm^2 before the addition of the toxin were used for further testing.

[5] = tested on: mice; settings: cited from earlier work; for minimum lethal dose: mice, i.p.
[6] = tested on: differentiated Caco-2 monolayers; test: Caco-2 permeability assay with microsphere-based immunoassay quantification; type: in vitro ADME, human; settings: for transport across the Caco-2 monolayer (apical to basolateral): 50 and 100 nM, 3, 6, 12 and 24 h
Protocol: With the aim of evaluating the transport of OA, DTX1 and DTX2 through the cell monolayer, we performed the permeability assays as described in Section 4.7. Caco-2 cell monolayers were incubated with OA, DTX1 and DTX2 for 3, 6, 12 and 24 h. […] According to the results, almost all the OA and DTX2 remain in the apical side (Figure 6 A,D and C,F). […] Likewise, in the absence of a cell monolayer (shown as no cells in Figure 6), all the toxins easily flow over inserts.
The permeability assay was carried out as previously described. During the assays, cell monolayer integrity was evaluated by measuring TEER at the start and end of the experiment. Once the incubation with the toxins (OA, DTX1 and DTX2) finished (after 3, 6, 12 or 24 h), the medium was collected from both the insert (donor compartment/apical side of the monolayer) and the well (receiver compartment/basolateral side of the monolayer) for toxin quantification purposes. Previously, we confirmed that the toxins easily flow over the naked inserts.
OA, DTX1 and DTX2 samples taken from the inserts/donor compartments and wells/receptor compartments where quantified, as previously described by Fraga et al.. In order to consider the cross-reactivity of the analyzed derivatives of the okadaic acid, DTX-1 and DTX-2, calibration curves were prepared using calibration solutions with CRMs of DTX-1 and DTX-2. Therefore, the quantification of DTX-1 and DTX-2 samples collected from permeability assays were quantified against their respective calibration curves.

[7] = tested on: differentiated Caco-2 monolayers; test: Annexin V-FITC apoptosis detection, confocal imaging; type: cell-based, human; settings: 24 h; for annexin V-FITC fluorescence (apoptosis): 100 nM toxin; for annexin V-FITC fluorescence (apoptosis / cell death), positive controls: 1 μM STP, 100 mM NaBT, 0.005% Triton X-100
Text: Cell membrane integrity assay: Some fluorescent methods allow a non-destructive evaluation of apoptosis by detecting changes in the structure of cell membranes. Annexin V has a high affinity for phosphatidylserine (PS), a phospholipid component located on the inner surface of the lipid bilayer of the cellular plasma membrane. During early apoptosis processes, this PS migrates to the outer portion, becomes exposed on the surface of the cell and can be detected by binding to annexin V labeled with a fluorescent dye. The annexin V assay was carried out in differentiated Caco-2 monolayers that were treated for 24 h with 100 nM of OA, DTX1, DTX2 or vehicle. Incubation with 0.005% Triton X-100 was used as a positive control of cell death and 1 μM staurosporine (STP) and 100 mM sodium butyrate (NaBT) as inductors of cell apoptosis.
To visualize apoptosis by confocal microscopy in the toxin-treated Caco-2 monolayers, an apoptosis detection kit containing annexin V conjugated with FITC from Immunostep (Salamanca, Spain) was used.
Caco-2 cells were seeded on glass coverslips at an initial concentration of 65 × 10^3 cells/mL and cultured for 21 days until differentiation with medium renewal each 2–3 days. On the 21st day, the cell medium was removed, and the monolayers were treated for 24 h with toxins: OA, DTX1, DTX2, vehicle and positive controls of apoptosis and cellular death (staurosporine (STP), sodium butyrate (NaBT) and Triton-X 100). Immediately after the 24 h of incubation, the medium was removed, and the cells were rinsed 3 times with PBS just before the addition of annexin V-FITC in a proportion of 1:100 diluted in the provided binding buffer. After 15 min of incubation in the dark at room temperature, the cells were rinsed again 3 times with PBS and fixed using paraformaldehyde 2% for 15 min at 4 °C. Finally, another 3 washes with PBS were required prior to mounting the coverslips over microscope glass slides with 10 μL of PBS/Glycerol (1:1) and sealing the edges with nail varnish. Confocal imaging was then carried out with a 40× oil immersion objective of a Nikon Eclipse TE2000-E inverted microscope attached to the C1 laser confocal system and EZ-C1 V.2.20 software (Nikon Instruments Europe B.V., Amstelveen, Netherlands). An argon laser was used to excite the annexin V-FITC conjugated protein (λ excitation = […], λ emission = […]).

[8] = tested on: Caco-2 monolayers; settings: cited from earlier work
[9] = tested on: mice; settings: cited from earlier work; for lethal oral dose: mice; for lethal oral dose / mice dead: oral
[10] = tested on: mice; settings: oral administration to mice; cited from earlier work
[11] = tested on: Caco-2 cells; set-up: method as in PMID 10806372; settings: 1–2 μM; cited from earlier work
[12] = tested on: Caco-2 cells; set-up: method as in PMID 21093526; settings: after 24 h; cited from earlier work
[13] = tested on: PP1; settings: cited from earlier work
[14] = EFSA, based on mice i.p. toxicity, reference OA

C=C1C(O)C2OC3(CCC(C=CC(C)C4CC(C)=CC5(OC(CC(C)(O)C(=O)O)CCC5O)O4)O3)CCC2OC1C(O)CC(C)C1CCCC2(OCCCC2C)O1 (stereo not shown) [DTX2, dinophysistoxin-2]
fluorescence intensity (percent of viability vs. control) [1]: did not show any decrease in fluorescence intensity | occludin distribution / location [2]: no modifications on the distribution of occludin | toxicity relative to OA [3]: equal toxicity | change in TEER values [4]: did not induce any change | toxicity equivalent factor (TEF) [5, 14]: 0.6 | toxicity equivalent factor (TEF) ([5]; acute intraperitoneal toxicity in mice): 0.6 | minimum lethal dose [5]: 350 μg/kg b.w. | transport across the Caco-2 monolayer (apical to basolateral) [6]: unable to cross the Caco-2 monolayer | annexin V-FITC fluorescence (apoptosis) [7]: Lack of fluorescence

C=C1[C@@H](O)[C@@H]2O[C@]3(CC[C@H](/C=C/[C@@H](C)[C@@H]4CC(C)=C[C@@]5(O[C@H](C[C@@](C)(O)C(=O)O)CC[C@H]5O)O4)O3)CC[C@H]2O[C@@H]1[C@@H](O)C[C@H](C)[C@H]1O[C@@]2(CCCCO2)CC[C@H]1C [OA, okadaic acid]
fluorescence intensity (percent of viability vs. control) [1]: did not show any decrease in fluorescence intensity | occludin distribution / location [2]: no modifications on the distribution of occludin | change in TEER values [4]: did not induce any change | toxicity equivalent factor (TEF) [5, 14]: 1 | TEER changes ([8]; 1 to 2 μM, 30 to 90 min): significant TEER reduction | concentration that decreased the TEER of Caco-2 monolayers [8]: ≥ 600 nM | TEER changes ([8]; differentiated Caco-2 monolayers, up to 200 nM for 24h): absence of TEER changes | lethal oral dose ([9]; ref 54): 400 μg/kg b.w. | lethal oral dose ([9]; ref 55): 880 μg/kg b.w. | mice dead ([9]; 1000 μg/kg b.w): 0/5 | mice dead ([9]; 2000 μg/kg b.w.): 4/5 | transport across the Caco-2 monolayer (apical to basolateral) [6]: unable to cross the Caco-2 monolayer | time to repair of damage to the intestinal ultrastructure [10]: ≤ 24 h | cell membrane damage and LDH release [11]: no cell membrane damage nor LHD release | applied dose found in the basolateral side [12]: 2% | applied dose trapped into Caco-2 cells [12]: 2%–3 | annexin V-FITC fluorescence (apoptosis) [7]: Lack of fluorescence

CCCC(=O)[O-].[Na+] [NaBT, sodium butyrate]
occludin distribution, positive controls [2]: redistribution of occludin with adjacent diffuse intracellular staining and a granular appearance | annexin V-FITC fluorescence (apoptosis / cell death), positive controls [7]: evident FITC green fluorescence zones

Triton X-100
occludin distribution, positive controls [2]: redistribution of occludin with adjacent diffuse intracellular staining and a granular appearance | annexin V-FITC fluorescence (apoptosis / cell death), positive controls [7]: heavily damaged cell monolayer with noticeable loss of substrate adhesion and fluorescent green dots

C=C1[C@@H](O)[C@@H]2O[C@]3(CC[C@H](/C=C/[C@@H](C)[C@@H]4CC(C)=C[C@@]5(O[C@H](C[C@@](C)(O)C(=O)O)CC[C@H]5O)O4)O3)CC[C@H]2O[C@@H]1[C@@H](O)C[C@H](C)[C@H]1O[C@@]2(CC[C@H]1C)OCCC[C@H]2C [DTX1, dinophysistoxin-1]
fluorescence intensity (percent of viability vs. control) [1]: did not show any decrease in fluorescence intensity | occludin distribution / location [2]: fragmented and less uniform staining of occludin | inhibition equivalency factor (IEF) ([3]; higher IC50 than OA): 0.6–0.9 | inhibition equivalency factor (IEF) ([3]; lower IC50 than OA): 1.6–2.4 | dissociation constant, fold lower compared to OA ([3]; catalytic subunit PP2A): 1.6 fold | change in TEER value ([4]; 50 nM, 24 h): significantly decreased | change in TEER value ([4]; 100 nM, 12 and 24 h): decrease was much more noticeable | TEER values lowered to ([4]; 100 nM, 12 h): 50% | TEER values lowered to ([4]; 100 nM, 24 h): 70% | concentration disrupting the integrity of Caco-2 monolayers ([4]; as stated in abstract): above 50 nM | concentration disrupting the monolayer integrity ([4]; for 12 h and above): > 100 nM | toxicity equivalent factor (TEF) [5, 14]: 1 | minimum lethal dose [5]: 160 µg/kg | oral toxicity compared with i.p. injection [9]: only slightly less toxic when administered orally than when given by i.p. injection | lethal oral dose ([9]; ref 58): 300 μg/kg b.w. | amount of toxin in the basolateral side ([6]; 100 nM, 24 h): increase in the amount of toxin in the basolateral side | initial amount recovered from the basolateral side ([6]; 100 nM, 24 h): ~50% | concentration at which toxin significantly crosses the intestinal epithelium ([6]; as stated in abstract): above 100 nM | inhibition equivalency factor (IEF), IC50 OA / IC50 analogue [13]: 0.4–0.9 | annexin V-FITC fluorescence (apoptosis) [7]: Lack of fluorescence

CN[C@@H]1C[C@H]2O[C@@](C)([C@@H]1OC)n1c3ccccc3c3c4c(c5c6ccccc6n2c5c31)C(=O)NC4 [STP, staurosporine]
occludin distribution, positive controls [2]: redistribution of occludin with adjacent diffuse intracellular staining and a granular appearance | annexin V-FITC fluorescence (apoptosis / cell death), positive controls [7]: evident FITC green fluorescence zones
